The conditions of series [1]: cited from earlier work.
Series [2] deals with nitroreductase NfsA-expressing HCT116 'activator' cells. Description: MCL (multicellular layer) bystander experiment, NfsA-dependent activation. Type of series: cell-based, human. As for the experimental part: Displacement of the Target cell survival curve to the left (T to Tc) is indicative of the presence of a cytotoxic metabolite(s) able to diffusible out of the sensitive activator (A) cell population. The prodrug concentrations for 10% survival (C10) of target cells (wild-type cells) grown without activators (T), targets in co-culture (TC) and activators (nfsA-expressing cells) in co-culture (AC) were determined by interpolation. BEE-Bystander effect efficiency calculates the drugs bystander effect: ((Log C10T−Log C10TC)/(Log C10T−Log C10AC)).
The prodrug concentrations for 10% survival (C10) of target cells (wild-type cells) grown without activators (T), and targets in co-culture (TC) and activators (NTR-expressing cells) in co-culture (AC) can be determined. The bystander effect of a test prodrug is measured by the bystander effect efficiency which can be calculated using the algorithm ((Log C10T−Log C10TC)/(Log C10T−Log C10AC)).
Millicell-CM membrane inserts (Millipore) were coated in calf-skin collagen type III (Sigma-Aldrich) to facilitate cell attachment. […] After exposure, inserts were disaggregated (0.07% trypsin, 10 min, 37° C., followed by 100 μg/ml DNAase I (Sigma-Aldrich). Cells were counted, resuspended and plated in P60 dishes to determine clonogenic survival. To discriminate clonogenic activator (NTR+) from target (NTR−) colonies cells were plated in non-selective medium (total cells) and medium containing 1 μM puromycin (activator cells). Colonies were grown in a 37° C. 5% CO2 incubator for 10 days before staining with methylene blue (2 g/liter in 50% v/v aqueous ethanol). Colonies containing >50 cells were counted as clonogenic survivors. Surviving fractions for each population was calculated as the plating efficiency for drug-treated MCLs/untreated controls. The drug concentrations for 10% survival (C10) of target cells grown without activators (T), targets in co-culture (Tc) and activators in co-culture (Ac) was determined by interpolation.

The test system of series [3] is HCT-116 cells expressing human cytochrome P450 reductase (CYPOR). Kind of series: Flow cytometry of EF5 retention in vitro. Type of series: cell-based. The conditions noted are these: increasing EF5 concentrations, oxic, monolayer. As to the method:
(§1) In vitro: 1×10^6 cells were drug treated (EF5 or PIMO) for 1-2 hrs, harvested by trypsinisation, fixed with 4% buffered PFA (pH 7.4, 1 hr). In vivo: Tumour xenograft cells were isolated by enzymatic dissociation (2.5 mg/ml pronase, 1 mg/ml collagenase and 0.2 mg/ml DNAse) and immediately fixed with 4% buffered PFA (pH 7.4, 1 hr). and transferred to 70% ethanol (−20° C., overnight). Cells were resuspended in 1% BSA/PBS and permeabilised with 0.2% Triton X-100 (30 min, RT), blocked in 10% BSA/PBS (30 min, RT) and resuspended in primary antibody for 2 hr (37° C.). The primary antibody was either anti-EF5 mouse monoclonal (ELK 3.51) conjugated with CY5 or Alexa-488 diluted to 100 μg/ml in blocking buffer (according to instruction in Koch C., 2008, Rad Res, 169 (6): 677-688) or Hypoxyprobe-1 (Chemicon Int) mouse monoclonal anti-pimonidazole antibody (clone 4.3.11.3) conjugated with FITC and diluted 1:100 in blocking buffer. Cells were washed in blocking buffer and resuspended in blocking buffer containing 100 μg/ml RNAase and analysed using a Becton Dickinson FACscan flow cytometer (MA, USA) with Cell Quest software using forward scatter and side scatter to gate out cell debris and tumour cells. Integrated fluorescence measurements were recorded for 30,000 single non-debris events.

A further series addresses T1, E. coli NfsA (Escherichia coli, UniProt P17117).
T1 construct: his6; made in house
Kind of series: Purified enzyme kinetics (NADPH oxidation at 340 nm). Type of series: biochemical. The conditions noted are these: 0.25 mM NADPH, varying EF5. As to the method: FIG. 12 illustrates the purified enzyme kinetic data for eleven E. coli nitroreductases with EF5 as a substrate. Reactions contained 10 mM Tris-Cl (pH 7.0), 4% DMSO, 0.25 mM NADPH and varying EF5 concentrations. Reactions were initiated by addition of 10 μl enzyme and changes in absorbance were measured for 15 s at 340 nm on a spectrophotometer to monitor NTR-catalysed NADPH oxidation.
For EF5 and other 2-NI bio-imaging agents, steady-state enzyme kinetics with purified NTRs were assessed spectrophotometrically at 340 nm to monitor NTR catalyzed NADPH oxidation. The molar extinction co-efficient of NADPH (6,220 M^−1 cm^−1) was used for the calculation of enzyme activity. For PR-104A, reduction was measured directly at 400 nm (ε=6,000 M^−1 cm^−1); and for CB1954, reduction was measured directly at 420 nm (ε=1,200 M^−1 cm^−1). Reactions were performed in 100 μl in UVettes (Eppendorf), using the 2 mm light path length. Reactions contained 10 mM Tris-Cl (pH 7.0), 4% DMSO, 0.25 mM NADPH and varying EF5 or PR-104A concentrations. Reactions were initiated by addition of 10 μl enzyme and changes in absorbance were measured for 15 s (during linearity). For calculation of Km and kcat, substrate concentrations were varied from ˜0.2×Km to 5×Km. Non-linear regression analysis and Michaelis-Menten curve fitting was performed using Sigmaplot 10.0 (Systat Software Inc.).

The subject of series [4] is HCT-116 cells stably expressing E. coli NfsB. Kind of series: Flow cytometry / fluorescent imaging of EF5 retention in vitro. Type of series: cell-based, human. As for the experimental part: (§2) FIG. 11 illustrates the results of flow cytometry analysis and fluorescent imaging of stably-expressing E. coli NTR cells after in vitro EF5 exposure. 1×10^6 cells were seeded into a 6-well plate and incubated with 20 μM EF5 for 2 hrs at 37° C. Cells were fixed and stained, then analysed by flow cytometry and imaged using a Nikon2000 fluorescent microscope.
(§3) FIG. 13 illustrates the results of flow cytometry analysis of HCT-116 cells stably expressing E. coli NfsA and NfsB after in vitro dose-response to EF5 exposure. 1×10^6 cells were incubated with varying concentrations of EF5 in oxic conditions. Samples were fixed and stained with EF5 antibody Alexa 488 ELK3.51 at 100 μg/ml. Samples were then analysed on a Becton Dickinson FACscan flow cytometer. Values are mean±SEM of two independent experiments. Representative histograms at multiple EF5 dose levels.
as §1
(§4) In vitro: 3-4 drops of cell suspension prepared for flow cytometry was added to a cytospin chamber containing a poly-I-lysine coated slide and spun for 5 minutes at low acceleration (500 rpm) in a cytospinner. Cells were left to dry and mounted with coverslips using Prolong Gold antifade (Invitrogen) and sealed with nail varnish.
(In general: In flow cytometry, cells or beads pass a laser one at a time.)

For series [5], the system named is HCT-116 cells stably expressing E. coli NfsA. The series is described as above. Type of series: cell-based, human. As for the experimental part:
as §2, §3, §1, §4

[6] abbreviates: increasing EF5 concentrations, oxic, monolayer.

T1 sequence (P17117 whole entry): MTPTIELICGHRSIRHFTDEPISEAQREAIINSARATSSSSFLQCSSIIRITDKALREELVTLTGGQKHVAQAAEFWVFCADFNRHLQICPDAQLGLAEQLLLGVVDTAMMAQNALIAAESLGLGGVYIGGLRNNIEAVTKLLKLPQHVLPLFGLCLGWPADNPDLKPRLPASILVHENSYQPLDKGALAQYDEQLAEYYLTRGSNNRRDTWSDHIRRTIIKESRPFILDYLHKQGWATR

On to `O=C(Cn1ccnc1[N+](=O)[O-])NCC(F)(F)C(F)(F)F` [EF5, 2-(2-nitro-1H-imidazol-1-yl)-N-(2,2,3,3,3-pentafluoropropyl)acetamide], for which the “tolerability (in words)” value in series [1] (EF5 21 mg/kg, injected) was “without any toxicities”. The “concentration-time achieved in human plasma” value in series [1] (cold EF5 9 mg/kg) is 0.89 mM-hr. Further, the “bystander property (in words)” value in series [2] (MCL of NTR-expressing and parental HCT116 cells) is “zero bystander property”. In addition, in series [2] (cold (radiolabel-free) EF5), the “concentration-time giving 90% loss of viability for nfsA expressing HCT116 cells” value amounted to 0.7 mM-hr. Moreover, in series [2] (hyperoxic (95% O2) MCLs, at concentrations achievable in α-MEM+10% FBS, activator fraction differs per experiment), the “estimated bystander effect efficiency (BEE)” value is listed as 0%. Besides, the “activity towards EF5, dose-response (in words)” value in series [3] and in series [4] (setting [6]) was “minimal activity” each time. The “enzyme kinetics with EF5 as substrate, rank among 11 E. coli NTRs (in words)” value at E. coli NfsA is “highest kcat and kcat/Km ratio”. Also, the “cellular retention of EF5 (in words)” value in series [4] (20 μM EF5, 2 h, aerobic, compared to parental cells) is recorded as “minor EF5 retention”; in series [5] (20 μM EF5, 2 h, aerobic), “greatest retention”. For the same compound, in series [5] (setting [6]), the “retention of EF5, dose-response (in words)” value is “clearly superior”.
